Data set [1] relates to glutamine binding protein (GlnBP). As to conditions: for reduction of fluorescence of GlnBP: high concentration of nucleotide.
Method: Steady-state measurements were performed using an ISS_K2 fluorometer (ISS, Urbana-Champaign, IL, USA), equipped with a one-cell temperature-controlled sample holder. […] Excitation and emission slit widths were fixed at 0.5 and 1.0 nm, respectively. […] The nucleotides were added to reach the indicated final concentration (from 0.18 to 96 µM) with an incubation interval of 10 min. Triplicate readings were done for each experimental point. Experiments were repeated three times (for NMN and NaMN) or twice (for all the other metabolites). Controls experiments were performed using the E. coli Glutamine Binding Protein (GlnBP, 3µM), with increasing concentration of NMN or NaMN, at the same conditions.
Percentages of reduction of fluorescence intensities compared to buffer, were calculated as follow: (normalized fluorescence in presence of analyte at a given [µM]/normalized fluorescence in presence of corresponding volume of buffer) × 100.
Data set [2] addresses T1, K61Q PncC (Escherichia coli, UniProt P0A6G3, K61Q).
T1 construct: made in house; host or cells: E. coli BL21(DE3)
In kind it is binding, E. coli. The method, then: (§1) Experimental data were processed using the OriginPro 8.0 (OriginLab Corporation, Northampton, MA, USA). A non-linear curve analysis (Hill1 plot) was used for plotting the F0/F values in function of the metabolite concentration, to obtain the Kd value.
Percentage of the K61Q protein that would exist in complex with NMN in a cellular setting was calculated based on the Kd value, by using the equation: %=100/1+Kd/[NMN]

Data set [3] concerns the target T2, S29A PncC (Escherichia coli, UniProt P0A6G3, S29A).
T2 construct: made in house; host or cells: E. coli BL21(DE3)
In kind it is binding, E. coli.
Source text: as §1

Data set [4] has as its target T1, K61Q PncC. Briefly: biochemical. In kind it is binding, E. coli. As to conditions: K61Q PncC, at 70 °C.
Data set [5] deals with the molecule itself. Briefly: SEC; gel filtration on Superose 12 HR 10/30, 50 mM HEPES pH 7.5, 0.3 M NaCl, 1 mM TCEP; 45 ug wild type, 30 ug mutants; calibrated with protein standards; self-association (dimer).
Data set [6] is described as follows: Thermal stability (melting temperature) of PncC proteins without ligand. The data set is classed as physicochemical. As to conditions: absence of NMN. The method, then:
Protein melting temperature (Tm) was determined by fluorescence-based thermal shift assay using fluoroprobe SYPRO Orange dye (Invitrogen, Waltham, MA, USA). The assay was performed in a RotorGene 3000 real-time PCR (Corbett, Biocompare, San Francisco, CA, USA). The assay mixture contained 50 mM Hepes/NaOH, pH 7.5, 300 mM NaCl, 1 mM TCEP, 1 μM protein, Sypro orange at 10-fold dilution from a 5000-fold stock, and the various ligands at the tested concentrations, in a final volume of 25 μL. The mixtures were pre-heated at 40 °C for 5 s, then heated to 50 °C in 1 s, and finally heated from 50 to 99 °C with a heating-up rate of 0.5 °C every 5 s. The fluorescence intensity was measured with Ex/Em: 470/585 nm. The melting temperature was determined by taking the maximum point of the slope-derivative peak. Kd values were determined by plotting the percentage of unfolded proteins as a function of nucleotide concentration at a fixed temperature, after normalization of the unfolding curves. Fitting of the data was performed using the equations reported in [34]. Three independent experiments were carried out and values were reported as the means ± standard deviation.

Substitutions are numbered along the chain they refer to. Names may count otherwise. Like-named read-outs stand apart in the source and are kept apart here.

T2 sequence (P0A6G3 whole entry S29A): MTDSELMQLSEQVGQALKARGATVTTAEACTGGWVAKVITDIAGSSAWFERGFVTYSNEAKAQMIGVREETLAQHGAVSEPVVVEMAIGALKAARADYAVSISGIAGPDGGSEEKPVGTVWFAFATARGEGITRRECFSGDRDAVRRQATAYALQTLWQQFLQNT
T1 sequence (P0A6G3 whole entry K61Q): as the sequence (P0A6G3 whole entry S29A) above, with A29S, K61Q counted along it

Take `O=C(O)c1cccnc1` [Na, nicotinic acid]: the “reduction of fluorescence of GlnBP” value in data set [1] is given as “do not affect”. The “K61Q PncC fluorescence quenching (%) vs buffer” value was 0.49% in data set [2] (nucleotide 0.185 µM); 1.2% in data set [2] (nucleotide 0.375 µM); 2.11% in data set [2] (nucleotide 0.75 µM); 2.66% in data set [2] (nucleotide 1.5 µM); 2.89% in data set [2] (nucleotide 3 µM); 2.81% in data set [2] (nucleotide 6 µM). Moreover, the “K61Q PncC fluorescence quenching (%) vs buffer” value is 3.26% in data set [2] (nucleotide 12 µM), 2.74% in data set [2] (nucleotide 24 µM) and 3.69% in data set [2] (nucleotide 48 µM). Besides, the “S29A PncC fluorescence quenching (%) vs buffer” value in data set [3] (nucleotide 0.185 µM), in data set [3] (nucleotide 0.375 µM), in data set [3] (nucleotide 0.75 µM), in data set [3] (nucleotide 1.5 µM), in data set [3] (nucleotide 3 µM) and in data set [3] (nucleotide 6 µM) was 0% in each case. Further, the “S29A PncC fluorescence quenching (%) vs buffer” value in data set [3] (nucleotide 12 µM) came to 0%; in data set [3] (nucleotide 24 µM), 0.16%; in data set [3] (nucleotide 48 µM), 0.62%.
Regarding `Nc1ncnc2c1ncn2[C@@H]1O[C@H](COP(=O)(O)OP(=O)([O-])OC[C@H]2O[C@@H]([n+]3cccc(C(=O)O)c3)[C@H](O)[C@@H]2O)[C@@H](O)[C@H]1O` [NaAD, nicotinic acid adenine dinucleotide], in data set [1], the “reduction of fluorescence of GlnBP” value was 6.3%. In addition, the “K61Q PncC fluorescence quenching (%) vs buffer” value in data set [2] (nucleotide 0.185 µM) turned out to be 0.65%; in data set [2] (nucleotide 0.375 µM), 1.02%; in data set [2] (nucleotide 0.75 µM), 1.68%; in data set [2] (nucleotide 1.5 µM), 2.19%; in data set [2] (nucleotide 3 µM) it was 2.25%; in data set [2] (nucleotide 6 µM) it was 2.39%. The “K61Q PncC fluorescence quenching (%) vs buffer” value came to 3.72% in data set [2] (nucleotide 12 µM), 4.13% in data set [2] (nucleotide 24 µM) and 5.77% in data set [2] (nucleotide 48 µM). For the same molecule, the “S29A PncC fluorescence quenching (%) vs buffer” value in data set [3] (nucleotide 0.185 µM), in data set [3] (nucleotide 0.375 µM), in data set [3] (nucleotide 0.75 µM), in data set [3] (nucleotide 1.5 µM), in data set [3] (nucleotide 3 µM) and in data set [3] (nucleotide 6 µM) was 0% each time. For the same molecule, the figures for the “S29A PncC fluorescence quenching (%) vs buffer” value in data set [3] (nucleotide 12 µM), in data set [3] (nucleotide 24 µM) and in data set [3] (nucleotide 48 µM) were 0%, 0% and 1.97%, respectively.
Consider `O=C(O)c1ccc[n+]([C@@H]2O[C@H](COP(=O)([O-])O)[C@@H](O)[C@H]2O)c1` [NaMN, nicotinic acid mononucleotide], for which, in data set [1] (GlnBP 3 µM, 96 µM nucleotide), the “quenching of fluorescence of GlnBP” value is on record as 4.3%. In addition, the “apparent Kd (Trp fluorescence)” value in data set [2] (K61Q PncC, at 25 °C) was “not possible to determine Kd”. In addition, the “K61Q PncC fluorescence quenching (%) vs buffer” value in data set [2] (nucleotide 0.185 µM) was 0.71%; in data set [2] (nucleotide 0.375 µM), 1.11%; in data set [2] (nucleotide 0.75 µM) it was 2.05%; in data set [2] (nucleotide 1.5 µM), 2.12%; in data set [2] (nucleotide 3 µM) it was 2.82%; in data set [2] (nucleotide 6 µM) it was 2.80%. Besides, the “K61Q PncC fluorescence quenching (%) vs buffer” value in data set [2] (nucleotide 12 µM) came to 4.14%; in data set [2] (nucleotide 24 µM), 4.9%; in data set [2] (nucleotide 48 µM) it was 7.14%; in data set [2] (nucleotide 96 µM), 10.68%. In data set [4], the “Kd (thermal shift)” value is on record as “not possible to determine Kd”. The “S29A PncC fluorescence quenching (%) vs buffer” value in data set [3] (nucleotide 0.185 µM) was found to be 1.79%; in data set [3] (nucleotide 0.375 µM), 2.56%; in data set [3] (nucleotide 0.75 µM), 6.47%; in data set [3] (nucleotide 1.5 µM), 20.83%; in data set [3] (nucleotide 3 µM), 30.74%; in data set [3] (nucleotide 6 µM), 30.87%. For the same molecule, the “S29A PncC fluorescence quenching (%) vs buffer” value in data set [3] (nucleotide 12 µM) came to 40.52%; in data set [3] (nucleotide 24 µM), 47.93%; in data set [3] (nucleotide 48 µM), 52.28%.
In the case of `NC(=O)c1cccnc1` [Nam, nicotinamide], the “reduction of fluorescence of GlnBP” value in data set [1] is given as “do not affect”. The “K61Q PncC fluorescence quenching (%) vs buffer” value in data set [2] (nucleotide 0.185 µM) was 0%; in data set [2] (nucleotide 0.375 µM), 0.34%; in data set [2] (nucleotide 0.75 µM) it was 0.87%; in data set [2] (nucleotide 1.5 µM), 0.68%; in data set [2] (nucleotide 3 µM) it was 0.91%; in data set [2] (nucleotide 6 µM), 0.26%. In addition, the “K61Q PncC fluorescence quenching (%) vs buffer” value in data set [2] (nucleotide 12 µM) came out at 1.15%; in data set [2] (nucleotide 24 µM), 1.04%; in data set [2] (nucleotide 48 µM), 1.14%. In addition, the “S29A PncC fluorescence quenching (%) vs buffer” value in data set [3] (nucleotide 0.185 µM) is on record as 0.08%; in data set [3] (nucleotide 0.375 µM) it was 0.18%; in data set [3] (nucleotide 0.75 µM), 0.48%; in data set [3] (nucleotide 1.5 µM), 1.49%; in data set [3] (nucleotide 3 µM) it was 2.51%; in data set [3] (nucleotide 6 µM) it was 2.65%. For the same molecule, the “S29A PncC fluorescence quenching (%) vs buffer” value in data set [3] (nucleotide 12 µM) is recorded as 3.29%; in data set [3] (nucleotide 24 µM) it was 3.29%; in data set [3] (nucleotide 48 µM), 3.71%; in data set [3] (nucleotide 96 µM (maximum quenching)) it was 5.01%.

B1: NMN deamidase (PncC) from E. coli, wild type (enzyme, UniProt P0A6G3 1-165, looked up)
chain: MTDSELMQLSEQVGQALKARGATVTTAESCTGGWVAKVITDIAGSSAWFERGFVTYSNEAKAQMIGVREETLAQHGAVSEPVVVEMAIGALKAARADYAVSISGIAGPDGGSEEKPVGTVWFAFATARGEGITRRECFSGDRDAVRRQATAYALQTLWQQFLQNT
notes: NMN deamidase PncC (EC 3.5.1.42), E. coli; the enzyme consists of 165 residues, 17.6 kDa; expressed from pCA24N-pncC; also called WT PncC; wild-type PncC; source: E. coli BL21(DE3), purified (HisTrap HP column, dialysis); not shown: His tag (from the HisTrap HP purification)
With B1, in data set [5], the “stoichiometry N” value came to 2.

B2: S29A PncC: catalytically inactive S29A mutant of E. coli NMN deamidase PncC (protein)
chain: B1 chain with S29A
modifications: left off: His tag (from the HisTrap HP purification; vector pCA24N), end not stated, state not stated
B2: in data set [6], the “Tm (melting temperature of the protein)” value came to 85.5 °C.

B3: WT PncC: wild type NMN deamidase (PncC) from E. coli, recombinant (protein)
chain: B1 chain
modifications: left off: His tag (from the HisTrap HP purification; vector pCA24N), end not stated, state not stated
notes: wild type NMN deamidase (PncC) from E. coli, recombinant
As to B3, in data set [6], the “Tm (melting temperature of the protein)” value amounted to 86.1 °C.

B4: S29A PncC (enzyme, E. coli, UniProt P0A6G3 1-165, looked up)
chain: B1 chain with S29A
notes: NMN deamidase PncC (EC 3.5.1.42), E. coli; 165 residues; mutagenized pCA24N-pncC plasmid; also called PncC S29A mutant; source: E. coli BL21(DE3), purified (HisTrap HP column, dialysis); not shown: His tag (from the HisTrap HP purification)
For the molecule B4, the “stoichiometry N” value in data set [5] turned out to be 2.

B5: K61Q PncC: catalytically inactive K61Q mutant of E. coli NMN deamidase PncC (protein)
chain: B1 chain with K61Q
modifications: left off: His tag (from the HisTrap HP purification; vector pCA24N), end not stated, state not stated
With B5, the “Tm (melting temperature of the protein)” value in data set [6] was 67.5 °C.

B6: K61Q PncC (enzyme, E. coli, UniProt P0A6G3 1-165, looked up)
chain: B1 chain with K61Q
notes: NMN deamidase PncC (EC 3.5.1.42), E. coli; 165 residues; mutagenized pCA24N-pncC plasmid; also called PncC K61Q mutant; source: E. coli BL21(DE3), purified (HisTrap HP column, dialysis); not shown: His tag (from the HisTrap HP purification)
Take B6: in data set [5], the “stoichiometry N” value came out at 2.
